Laboratory results published in ChEMBL document CHEMBL1201862, “PubChem BioAssay data set” (2004).
One block for each molecule: values may come before it. The source made the active and inactive calls.

Tests used:
Vero = assay: host cell cytotoxicity of antiviral hits, dose response, cytotoxicity control for West Nile virus antiviral project, secondary assay (AID 1650); type: functional; conditions: Chlorocebus sabaeus
[1] = Fluorescence-based cell-based high throughput dose response assay for inhibitors of the interaction of nucleotide-binding oligomerization domain containing 2 (NOD2) and the receptor-interacting serine-threonine kinase 2 (RIPK2).; type: functional; conditions: Homo sapiens
Paired box protein Pax-8 = Paired box protein Pax-8 (Homo sapiens, UniProt Q06710); assay: inhibitors of PAX8-driven TPO luciferase reporter, dose response, RMG-I cells, cherry-pick (AID 687027); type: functional, cell-based;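 note: luciferase reporter driven by Pax8 target thyroperoxidase promoter measured by SteadyGlo luminescence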
[2] = A549 cell cytotoxicity, dose response, cytotoxicity control, plate reader, cherry-pick, antagonist series (AID 743412); type: functional, cell-based
[3] = HepG2 cell cytotoxicity, dose response, cytotoxicity control, plate reader, cherry-pick, antagonist series (AID 743416); type: functional, cell-based
[4] = LGR2 antagonists, dose response, cell-based, HEK293, CRE-luciferase reporter, cherry pick, set 2 (AID 743343); type: functional;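 note: transfected cells were stimulated with diluted bursicon conditioned medium after compound addition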
[5] = MC4R antagonists, dose response, counter-screen for LGR2 antagonist project, cell-based, plate reader, cherry pick (AID 743444); type: functional;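 note: transfected HEK 293 cells stimulated with alpha-MSH peptide; potency of inhibitors of the alpha-MSH evoked signal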
[6] = HEK293 cell cytotoxicity, dose response, cytotoxicity control, plate reader, cherry-picked samples (AID 743446); type: functional, cell-based
[7] = A2780 ovarian cancer cell cytotoxicity, dose response, cytotoxicity control, plate reader, dry powder samples (AID 743046); type: functional, cell-based
[8] = NIH:OVCAR-3 ovarian cancer cell cytotoxicity, dose response, PAX8 inhibitor project, plate reader, dry powder samples (AID 743044); type: functional, cell-based
[9] = cytotoxicity in OVCAR8 ovarian cancer cells, dose response, PAX8 project, cell-based, plate reader, dry powder samples (AID 743197); type: functional; conditions: OVCAR-8
Kallikrein-7 = Kallikrein-7 (Homo sapiens, UniProt P49862); assay: Fluorescence Intensity-based biochemical primary high throughput dose response assay to identify activators of kallikrein-7 (K7) zymogen.
[10] = P. falciparum late gametocyte killing, dose response, luminescence (AID 1117278); type: functional, cell-based;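 note: gametocytes exposed to compound for 24 hours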
[11] = Jurkat T cell cytotoxicity, dose response, cytotoxicity control for P. falciparum gametocyte viability project, luminescence (AID 1117277); type: functional, cell-based;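 note: potency reflects loss of cellular ATP meaning fewer viable cells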
[12] = Concentration-dependent survival of SW480 colon cancer line, luminescence detection with CellTiter-Glo, half-maximal inhibitory concentration (AID 1117338); type: functional
[13] = RKO cell viability reduction, dose response, CellTiter-Glo luminescence (AID 1117322); type: functional
[14] = cytotoxicity toward HCT116 cells – cell-based, CellTiter-Glo luminescence, IC50, dose response (AID 1117332); type: functional; conditions: HCT-116
[15] = SNU-C1 cell viability reduction, dose response, CellTiter-Glo luminescence (AID 1117323); type: functional, cell-based
[16] = cytotoxicity toward Colo320 cells – cell-based, CellTiter-Glo luminescence, IC50, dose response (AID 1117334); type: functional; conditions: COLO 320
[17] = cytotoxicity toward HT-29 cells – cell-based, CellTiter-Glo luminescence, IC50, dose response (AID 1117330); type: functional
[18] = CellTiter-Glo luminescent dose response of DLD-1 viability loss (AID 1117352); type: functional

Chain of Paired box protein Pax-8 (Q06710 whole entry): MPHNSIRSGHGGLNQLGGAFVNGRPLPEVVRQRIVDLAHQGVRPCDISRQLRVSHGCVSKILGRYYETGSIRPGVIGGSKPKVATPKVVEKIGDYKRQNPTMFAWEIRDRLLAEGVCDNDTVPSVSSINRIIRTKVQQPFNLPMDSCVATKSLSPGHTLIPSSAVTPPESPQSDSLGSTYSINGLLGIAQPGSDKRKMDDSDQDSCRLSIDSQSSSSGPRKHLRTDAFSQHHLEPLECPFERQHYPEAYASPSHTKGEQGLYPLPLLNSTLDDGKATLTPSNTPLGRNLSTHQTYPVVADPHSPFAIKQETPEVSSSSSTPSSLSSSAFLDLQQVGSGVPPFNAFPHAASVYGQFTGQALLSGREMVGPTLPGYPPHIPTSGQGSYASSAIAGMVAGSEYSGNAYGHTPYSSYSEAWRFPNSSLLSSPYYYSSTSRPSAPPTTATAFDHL
Chain of Kallikrein-7 (P49862 whole entry): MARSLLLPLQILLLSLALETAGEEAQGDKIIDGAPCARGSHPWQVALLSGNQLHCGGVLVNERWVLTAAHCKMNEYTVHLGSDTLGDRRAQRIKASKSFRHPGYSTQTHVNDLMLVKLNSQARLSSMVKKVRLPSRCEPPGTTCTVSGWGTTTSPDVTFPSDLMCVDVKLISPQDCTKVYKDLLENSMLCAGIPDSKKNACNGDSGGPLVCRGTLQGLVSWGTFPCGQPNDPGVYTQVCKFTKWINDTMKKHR

SMILES: COc1ccc2nc(Nc3nc(O)cc(CSc4nnnn4-c4ccccc4)n3)nc(C)c2c1
CC50 (Vero): > 100 µM (active)

SMILES: O=C1NC2C(O)C(O)C(O)C(O)C2c2cc3c(c(O)c21)OCO3 (configuration not stated)
IC50 [1]: 49.8 µM (inactive)
AC50 (Paired box protein Pax-8): < 0.26 µM (active)
AC50 [2]: 0.358 µM (active)
AC50 [3]: 0.428 µM (active)
AC50 [4]: 0.362 µM (active)
AC50 [5]: 0.372 µM (active)
AC50 [6]: 0.321 µM (active)

SMILES: C[C@H]1CCCCO[C@@H](CN(C)Cc2ccc(C(F)(F)F)cc2)[C@@H](C)CN([C@@H](C)CO)C(=O)c2cc(NC(=O)Cc3ccccc3)ccc2O1
AC50 (Paired box protein Pax-8): 7.94 µM (active)
AC50 [7]: 0.963 µM (active)
AC50 [8]: 11.4 µM (active)
AC50 [9]: 30.8 µM (active)

EC50 (Kallikrein-7): > 69.5 µM (inactive)
SMILES: Clc1ccc(-c2cnc3cccnn23)cc1

SMILES: CS(=O)(=O)Cc1cc(N2CCCC2)nc(-c2ccccc2)n1
IC50 [10]: > 109 µM (inactive)
IC50 [11]: > 83.3 µM (inactive)

SMILES: C[C@@H]1CN([C@H](C)CO)C(=O)Cc2cc(NS(=O)(=O)c3ccc(Cl)cc3)ccc2O[C@@H]1CN(C)Cc1ccc(C(F)(F)F)cc1
AC50 [2]: 7.62 µM (active)
AC50 [3]: 10.4 µM (active)
AC50 [4]: 22.7 µM (active)
AC50 [5]: 20.2 µM (active)
AC50 [6]: 15.8 µM (active)

SMILES: CN(CCOc1ccc(CC2SC(=O)NC2=O)cc1)c1ccccn1 (configuration not stated) [ROSIGLITAZONE]
IC50 [12]: > 20 µM (inactive)
IC50 [13]: > 20 µM (inactive)
IC50 [14]: > 20 µM (inactive)
IC50 [15]: 8.69 µM (inactive)
IC50 [16]: > 20 µM (inactive)
IC50 [17]: > 20 µM (inactive)
IC50 [18]: > 20 µM (inactive)
